# Source: patent US5565432A (American Home Products Corporation, priority 1994, dated 1996)
# Counter-ions that a name gives are not always drawn.
# Experiments:
# [1] = system: normal human plasma; experiment: Anticoagulant activity, partial thromboplastin time (APTT) assay; conditions: for Anticoagulation Activity (APTT) Relative to Heparin: ratio>1 indicates weaker activity relative to heparin on a μg/mL basis
# Method: The anticlotting activity of the compounds of this invention were evaluated in a partial thromboplastin time (APTT) assay using normal human plasma collected from 5 donors using the procedure of Fenichel et. al. (Clin. Chem. 1964, 10, 69). A BBL Fibrometer automatic precesion coagulation timer utilizing a 0.3 ml probe was employed. An Ellagic acid activated partial thromboplastin was used for these experiments. This reagent is added to human citrated plasma equilibrated at 37° C. in a plastic well in the clot timer. Calcium at 37° C. is added, the clot timer is started and the time for fibrin clot formation (in seconds) was recorded. The effect of the compounds, added to plasma, over a concentration of 12.5-200 μg/mL was determined. […] An unfractionated heparin comparator was used over the concentration range of 1.25-10 μg/mL. Clotting tests at all concentrations were run in triplicate. Analysis of variance for a randomized block design was used to determine the significance of differences observed in the clotting times. The potency is reported relative to heparin wherein ratio>1 indicates weaker activity relative to heparin on a μg/mL basis.
# [2] = system: common carotid artery, intimal thickening; experiment: Experimental model of restenosis (air-dried carotid artery), intimal thickening; format: in vivo, Male Sprague-Dawley Rats; conditions: in comparison to untreated animals; dose of 125 μg/mL, i.v. osmotic pump, 2 weeks
# Excerpt: Male Sprague-Dawley Rats weighing between 0.3-0.4 kg were housed in polycarbonate cages (2 per box) with corn cob bedding and provided with Purina 5001 rat chow and water (ad. lib. A 12 hr/12 hr light: dark cycle was maintained with light on at 7:00 A.M). After acclimation, rats were randomly assigned to treatment groups (12 per group). The rats were anesthetized with Ketamine, Acepromazone, and Xylazine. The anterior portion of the neck was shaved, a 3 cm incision was made along the midline, and the trachea was exposed by gently parting the underlying tissues and muscle. A retractor was inserted to hold the muscles and tissues aside and the common carotid artery was isolated from the surrounding tissue. A 2 cm segment of the right common carotid artery was lifted such that an 11 mm approximator was placed on the vessel at about […] before the bifurcation of the internal and external branches of the carotid artery. The 5 mm segment of the common carotid artery between the clamps of the approximator was punctured at about 0.5 mm from the edge of each clamp with a 30 G needle and a gentle stream of isotonic saline was injected through the isolated segment to flush out any blood. […]
# Two weeks following surgery, the rats were sacrificed via anesthetized exsanquination. […] The cross sections were photographed and the arterial media and intima were digitized and measured. […]
# [3] = system: human aortic endothelial cells; experiment: Effect on human endothelial cell growth; format: cell-based; conditions: driven by 2% FBS, at doses inhibitory towards human smooth muscle cell proliferation driven by 10% FBS (FIG. 1)
# Method: The ability of the compounds of the present invention to inhibit smooth muscle cell proliferation and modulate endothelial cell growth was established using isolated aortic cells obtained from commercial sources or, for certain species, prepared in-house. Cell lines used in this study include human and porcine aortic smooth muscle cells and human aortic endothelial cells. Human aortic cell lines were obtained from Clonetics Corporation (San Diego).
# Cells were assayed in early passage (generally passage 3-7) at sub-confluent conditions. Cultures were grown in 16 mm (24 well) multi-well culture dishes in media 199 supplemented with 10% fetal bovine serum and 2% antibiotic/antimycotic. At sub-confluence, the cells were placed in a defined serum free medium (AIM-V; Gibco) for 24-48 h prior to initiating the experimental protocol.
# Growth factor and serum stimulations were optimized for each cell type.
# Compounds were added to each well at 50 fold dilution (20 μL/well) and the plates were incubated for 24-36 h at 37° C. in 5% CO2. […] Compounds were routinely assayed at 1, 10, and 100 μM. […]
# Data was obtained, in triplicate, for both control and experimental samples. […] Data was expressed as a percent of control from which IC50 s could be determined. […]
# [4] = system: restenosis; conditions: prior art; cited from earlier work
# [5] = system: smooth muscle cell; conditions: prior art; cited from earlier work
compound,measurement,setting,value
"Cc1ccc(CO[C@@H]2O[C@H](COS(=O)(=O)O)[C@@H](O[C@@H]3O[C@H](COS(=O)(=O)O)[C@@H](OS(=O)(=O)O)[C@H](OS(=O)(=O)O)[C@H]3OS(=O)(=O)O)[C@H](OS(=O)(=O)O)[C@H]2OS(=O)(=O)O)cc1NC(=O)c1cc(C(=O)Nc2cc(CO[C@@H]3O[C@H](COS(=O)(=O)O)[C@@H](O[C@@H]4O[C@H](COS(=O)(=O)O)[C@@H](OS(=O)(=O)O)[C@H](OS(=O)(=O)O)[C@H]4OS(=O)(=O)O)[C@H](OS(=O)(=O)O)[C@H]3OS(=O)(=O)O)ccc2C)cc(C(=O)Nc2cc(CO[C@@H]3O[C@H](COS(=O)(=O)O)[C@@H](O[C@@H]4O[C@H](COS(=O)(=O)O)[C@@H](OS(=O)(=O)O)[C@H](OS(=O)(=O)O)[C@H]4OS(=O)(=O)O)[C@H](OS(=O)(=O)O)[C@H]3OS(=O)(=O)O)ccc2C)c1 [Example 9, Benzene-1,3,5-tricarboxylic Acid Tris{[2-methyl-5-(hepta-O-sulfato-β-cellobiosyloxymethyl)phenyl]amide}Heneicosasodium Salt]","Anticoagulation Activity (APTT), in words",[1]; at 25-200 μg/mL,no signifcant
O=C(Nc1cc(CO[C@@H]2O[C@H](COS(=O)(=O)O)[C@@H](O[C@@H]3O[C@H](COS(=O)(=O)O)[C@@H](OS(=O)(=O)O)[C@H](OS(=O)(=O)O)[C@H]3OS(=O)(=O)O)[C@H](OS(=O)(=O)O)[C@H]2OS(=O)(=O)O)ccc1Cl)c1cc(C(=O)Nc2cc(CO[C@@H]3O[C@H](COS(=O)(=O)O)[C@@H](O[C@@H]4O[C@H](COS(=O)(=O)O)[C@@H](OS(=O)(=O)O)[C@H](OS(=O)(=O)O)[C@H]4OS(=O)(=O)O)[C@H](OS(=O)(=O)O)[C@H]3OS(=O)(=O)O)ccc2Cl)cc(C(=O)Nc2cc(CO[C@@H]3O[C@H](COS(=O)(=O)O)[C@@H](O[C@@H]4O[C@H](COS(=O)(=O)O)[C@@H](OS(=O)(=O)O)[C@H](OS(=O)(=O)O)[C@H]4OS(=O)(=O)O)[C@H](OS(=O)(=O)O)[C@H]3OS(=O)(=O)O)ccc2Cl)c1 [Example 11],Anticoagulation Activity (APTT) Relative to Heparin,[1],72
same,inhibition of intimal thickening,[2],50%
same,human endothelial cell growth,[3],enhance human endothelial cell growth
"O=C(Nc1cc(CO[C@@H]2O[C@H](COS(=O)(=O)O)[C@@H](O[C@@H]3O[C@H](COS(=O)(=O)O)[C@@H](OS(=O)(=O)O)[C@H](OS(=O)(=O)O)[C@H]3OS(=O)(=O)O)[C@H](OS(=O)(=O)O)[C@H]2OS(=O)(=O)O)cc(CO[C@@H]2O[C@H](COS(=O)(=O)O)[C@@H](O[C@@H]3O[C@H](COS(=O)(=O)O)[C@@H](OS(=O)(=O)O)[C@H](OS(=O)(=O)O)[C@H]3OS(=O)(=O)O)[C@H](OS(=O)(=O)O)[C@H]2OS(=O)(=O)O)c1)c1cc(C(=O)Nc2cc(CO[C@@H]3O[C@H](COS(=O)(=O)O)[C@@H](O[C@@H]4O[C@H](COS(=O)(=O)O)[C@@H](OS(=O)(=O)O)[C@H](OS(=O)(=O)O)[C@H]4OS(=O)(=O)O)[C@H](OS(=O)(=O)O)[C@H]3OS(=O)(=O)O)cc(CO[C@@H]3O[C@H](COS(=O)(=O)O)[C@@H](O[C@@H]4O[C@H](COS(=O)(=O)O)[C@@H](OS(=O)(=O)O)[C@H](OS(=O)(=O)O)[C@H]4OS(=O)(=O)O)[C@H](OS(=O)(=O)O)[C@H]3OS(=O)(=O)O)c2)cc(C(=O)Nc2cc(CO[C@@H]3O[C@H](COS(=O)(=O)O)[C@@H](O[C@@H]4O[C@H](COS(=O)(=O)O)[C@@H](OS(=O)(=O)O)[C@H](OS(=O)(=O)O)[C@H]4OS(=O)(=O)O)[C@H](OS(=O)(=O)O)[C@H]3OS(=O)(=O)O)cc(CO[C@@H]3O[C@H](COS(=O)(=O)O)[C@@H](O[C@@H]4O[C@H](COS(=O)(=O)O)[C@@H](OS(=O)(=O)O)[C@H](OS(=O)(=O)O)[C@H]4OS(=O)(=O)O)[C@H](OS(=O)(=O)O)[C@H]3OS(=O)(=O)O)c2)c1 [Example 14, Benzene-1,3,5-tricarboxylic Acid Tris{[3,5-bis-(hepta-O-sulfato-β-D-cellobiosyloxymethyl)phenyl]amide}Tetratetracontasodium Salt]",Anticoagulation Activity (APTT) Relative to Heparin,[1],3.1
Beta-Cyclodextrin tetradecasulfate,inhibition of restenosis (literature),[4],effective inhibitor of restenosis
same,SMC proliferation inhibition (literature),[5],smooth muscle cell proliferation inhibitor
